Laboratory results: paper PMC3848914, “Histone deacetylase (HDAC) inhibitory and antiproliferative activities of phenolic-rich extracts derived from the rhizome of Hydnophytum formicarum Jack.: sinapinic acid acts as HDAC inhibitor” (BMC Complementary and Alternative Medicine, 2013)
Where two headings read alike, the source gives them in different places. Values belong to the compound of their own block, whether it stands above or below them.

Assays:
HeLa cells [1] = assay: Apoptosis analysis (Annexin V/PI flow cytometry) in HeLa cells; assay type: cell-based, human; conditions: 6 h-treatment
Procedure: Apoptosis analysis was performed by using a Vybrant Apoptosis Assay Kit #2 (Molecular Probes, Invitrogen Corporation, Carlsbad, CA, U.S.A.) according to the manufacturer’s instructions. Briefly, cells were seeded at 1.2 × 10^6 cells/4 ml in a 4.5-cm dish, incubated for 24 hours, and treated with different concentrations of the extracts or sinapinic acid for 6 hours. Cells were harvested by trypsinization, washed with cold PBS, and resuspended in the Annexin-binding buffer. Cell density was determined and diluted in the annexin-binding buffer to 10^5 cells per assay. Cells were incubated with Alexa Fluor 488 Annexin V and Propidium iodide (PI) at room temperature for 15 minutes. Following the incubation, cells were analyzed by flow cytometry using a Beckman Coulter Cytomics FC500 MPL flow cytometry (Beckman Coulter, Miami, FL, U.S.A.). The flow cytometry results were confirmed by viewing the cells under a fluorescence microscope.

[2] = target: HDAC enzymes (HeLa nuclear extract); assay: In vitro HDAC inhibition activity assay (Fluor-de-Lys kit); assay type: biochemical, human
Procedure: HDAC inhibitory activity of the H. formicarum Jack. rhizome extracts, sinapinic acid (Sigma) and sodium butyrate (Sigma) was determined by using the Fluor-de-Lys HDAC activity assay kit (Biomol, Enzo Life Sciences International, Inc., Plymount Meeting, PA, U.S.A.). The assay was performed according to the manufacturer’s instructions. Fluorescence was measured using a spectra Max Gemini XPS microplate spectrofluorometer (Molecular Devices, Sunnyvale, CA, U.S.A.) with excitation at 360 nm and emission at 460 nm. Inhibition of HDAC activity was monitored by a decrease in fluorescence signal.
The effect of various polarity extracts including fractionated solvent extracts from hexane soluble fraction, ethyl acetate soluble fraction, methanol soluble fraction and also ethanolic crude extract on in vitro HDAC activity was examined by using HeLa nuclear extract as a source of the HDAC enzymes.

[3] = system: histone H4 acetylation in HeLa cells; assay: HDAC inhibition in HeLa cells: histone acetylation by AUT gel electrophoresis; assay type: cell-based, human; conditions: 6 h-treatment
Procedure: Cells grown in a 4.5-cm dish were treated with either solvent control or the sample for 6 hours, and the histone proteins were then isolated according to the Abcam’s protocol (Abcam Inc., Cambridge, MA, U.S.A.) with some modifications. In brief, cells were harvested by trypsinization, washed with PBS, and then resuspended in Triton Extraction Buffer (TEB; PBS containing 0.5% (v/v) Triton X-100, 2 mM phenylmethylsulfonyl fluoride, 0.02% (w/v) NaN3) at a cell density of 10^5 cells/ml. The cells were incubated on ice and agitated periodically for 10 minutes. The suspension was centrifuged at 7,500 rpm for 10 minutes at 4°C to spin down the nuclei and the supernatant was discarded. The nuclei pellet was resuspended in 0.2 M HCl at a density of 10^6 nuclei/ml and incubated overnight at 4°C. […] Protein concentration was measured by using a Bio-Rad protein assay kit (Bio-Rad Laboratories, Hercules, CA, U.S.A.) based on the Bradford method.
Inhibition on acetylation of cellular histones was analyzed by gel electrophoresis using acid urea/Triton-X-100 (AUT) gels. […]
HDAC inhibition by ethanolic crude extract, phenolic-rich extract and sinapinic acid in HeLa cells was analyzed by AUT gel electrophoresis, whereby each cellular core histone (H2A, H2B, H3, and H4) with different extent of acetylation can be separated. […]

Vero cells = assay: Antiproliferative activity assay (WST-8), Vero cells; assay type: cell-based; conditions: compounds
Procedure: (§1) Cells were seeded in a 96-well plate at cell density of 10^4 cells/well and incubated for 24 hours. Sample groups were treated with different concentrations of H. formicarum Jack. rhizome extracts (0.5-3.0 mg/mL), sinapinic acid (0.5-3.0 mM), or sodium butyrate (0.5-3.0 mM) for 24, 48 and 72 hours. Vehicle control groups were added with DMSO (final concentration of 0.05%) or double distilled water. Cell proliferation assays were performed using a WST-8 Cell Proliferation Assay Kit (BioVision, Mountain View, CA, U.S.A.) according to the manufacturer’s instructions. Absorbance (A) was measured at 415 nm using a microtiter plate reader (Bio-Rad Laboratories, Hercules, CA, U.S.A.). The absorbance at 655 nm was used as a reference wavelength. Cell proliferation or cell growth was determined as a percentage of the vehicle control by an equation of;
(§2) %CellProliferation=controlA‒sampleA/controlA×100.

HeLa cells [4] = assay: Antiproliferative activity assay (WST-8), HeLa cells; assay type: cell-based, human; conditions: compounds
Procedure: as §1, §2

HT29 cells = assay: Antiproliferative activity assay (WST-8), HT29 cells; assay type: cell-based, human; conditions: compounds
Procedure: as §1, §2

HCT116 cells = assay: Antiproliferative activity assay (WST-8), HCT116 cells; assay type: cell-based, human; conditions: compounds
Procedure: as §1, §2

MCF-7 cells = assay: Antiproliferative activity assay (WST-8), MCF-7 cells; assay type: cell-based, human; conditions: compounds
Procedure: as §1, §2

Jurkat cells = assay: Antiproliferative activity assay (WST-8), Jurkat cells; assay type: cell-based, human; conditions: compounds
Procedure: as §1, §2

[5] = 72 h, read-out: IC50 values, HeLa cells 72 h

Compound: CC[C@@]1(O)C(=O)OCc2c1cc1n(c2=O)Cc2cc3ccccc3nc2-1 [Camptothecin]
Number of Late Apoptotic cells (%) (HeLa cells [1]; 0.1 mg/mL): 3.55 ± 1.06%

IC50 [2]: 2270 ± 130 µM | IC50 (HeLa cells [4]; Homo sapiens, HeLa, 24 h, 24 h, read-out: IC50 values, HeLa cells 24 h): 2350 ± 30 µM | IC50 (HeLa cells [4]; Homo sapiens, HeLa, 48 h, 48 h, read-out: IC50 values, HeLa cells 48 h): 2040 ± 60 µM | IC50 (HeLa cells [4]; Homo sapiens, HeLa, 72 h, 72 h, read-out: IC50 values, HeLa cells 72 h): 910 ± 20 µM | IC50 (HeLa cells [4]; [5]): 900 ± 20 µM | IC50 (HT29 cells; Homo sapiens, HT-29, 24 h, read-out: IC50 values, HT29 cells 24 h): 2970 ± 50 µM | IC50 (HT29 cells; Homo sapiens, HT-29, 48 h, read-out: IC50 values, HT29 cells 48 h): 2200 ± 30 µM | IC50 (HT29 cells; Homo sapiens, HT-29, 72 h, read-out: IC50 values, HT29 cells 72 h): 1600 ± 20 µM | IC50 (HCT116 cells; Homo sapiens, HCT-116, 24 h, read-out: IC50 values, HCT116 cells 24 h): > 3000 µM | IC50 (HCT116 cells; Homo sapiens, HCT-116, 48 h, read-out: IC50 values, HCT116 cells 48 h): 2200 ± 150 µM | IC50 (HCT116 cells; Homo sapiens, HCT-116, 72 h, read-out: IC50 values, HCT116 cells 72 h): 2100 ± 60 µM | IC50 (MCF-7 cells; Homo sapiens, MCF7, 24 h, read-out: IC50 values, MCF-7 cells 24 h): > 3000 µM | IC50 (MCF-7 cells; Homo sapiens, MCF7, 48 h, read-out: IC50 values, MCF-7 cells 48 h): > 3000 µM | IC50 (MCF-7 cells; Homo sapiens, MCF7, 72 h, read-out: IC50 values, MCF-7 cells 72 h): > 3000 µM | IC50 (Jurkat cells; Homo sapiens, Jurkat, 24 h, read-out: IC50 values, Jurkat cells 24 h): > 3000 µM | IC50 (Jurkat cells; Homo sapiens, Jurkat, 48 h, read-out: IC50 values, Jurkat cells 48 h): > 3000 µM | IC50 (Jurkat cells; Homo sapiens, Jurkat, 72 h, read-out: IC50 values, Jurkat cells 72 h): 2800 ± 120 µM
Compound: COc1cc(/C=C/C(=O)O)cc(OC)c1O [Sinapinic acid, sinapinic acid]
Histone H4 acetylation in HeLa cells (in words) [3]: clearly increased di- and tri-acetylated H4 molecules | IC50 (Vero cells; Chlorocebus sabaeus, Vero, 24 h, read-out: IC50 values, Vero cells 24 h): > 3000 µM | IC50 (Vero cells; Chlorocebus sabaeus, Vero, 48 h, read-out: IC50 values, Vero cells 48 h): > 3000 µM | IC50 (Vero cells; Chlorocebus sabaeus, Vero, 72 h, read-out: IC50 values, Vero cells 72 h): > 3000 µM | Number of Early Apoptotic cells (%) (HeLa cells [1]; 4.5 mM): 4.40 ± 1.27% | Number of Late Apoptotic cells (%) (HeLa cells [1]; 4.5 mM): 1.75 ± 0.78% | Number of Early Apoptotic cells (%) (HeLa cells [1]; 9.0 mM): 8.40 ± 1.55% | Number of Late Apoptotic cells (%) (HeLa cells [1]; 9.0 mM): 3.25 ± 1.06% | Number of Early Apoptotic cells (%) (HeLa cells [1]; 9.0 mM, listed as sinapinic acid): 8.4%

IC50 [2]: 970 ± 70 µM | IC50 (HeLa cells [4]; 24 h, read-out: IC50 values, HeLa cells 24 h): 2630 ± 60 µM | IC50 (HeLa cells [4]; 48 h, read-out: IC50 values, HeLa cells 48 h): 2220 ± 130 µM | IC50 (HeLa cells [4]; 72 h, listed as sodium butyrate, read-out: IC50 values, HeLa cells 72 h): 1220 ± 30 µM | IC50 (HeLa cells [4]; [5]): 1200 ± 30 µM | IC50 (HT29 cells; 24 h, read-out: IC50 values, HT29 cells 24 h): > 3000 µM | IC50 (HT29 cells; 48 h, read-out: IC50 values, HT29 cells 48 h): > 3000 µM | IC50 (HT29 cells; 72 h, read-out: IC50 values, HT29 cells 72 h): 2570 ± 30 µM | IC50 (HCT116 cells; 24 h, read-out: IC50 values, HCT116 cells 24 h): > 3000 µM | IC50 (HCT116 cells; 48 h, read-out: IC50 values, HCT116 cells 48 h): 2200 ± 200 µM | IC50 (HCT116 cells; 72 h, read-out: IC50 values, HCT116 cells 72 h): 2000 ± 50 µM | IC50 (MCF-7 cells; 24 h, read-out: IC50 values, MCF-7 cells 24 h): > 3000 µM | IC50 (MCF-7 cells; 48 h, read-out: IC50 values, MCF-7 cells 48 h): > 3000 µM | IC50 (MCF-7 cells; 72 h, read-out: IC50 values, MCF-7 cells 72 h): > 3000 µM | IC50 (Jurkat cells; 24 h, read-out: IC50 values, Jurkat cells 24 h): > 3000 µM | IC50 (Jurkat cells; 48 h, read-out: IC50 values, Jurkat cells 48 h): 2360 ± 190 µM | IC50 (Jurkat cells; 72 h, read-out: IC50 values, Jurkat cells 72 h): 1500 ± 300 µM
Compound: CCCC(=O)[O-].[Na+] [Sodium butyrate, sodium butyrate]
IC50 (Vero cells; 24 h, read-out: IC50 values, Vero cells 24 h): > 3000 µM | IC50 (Vero cells; 48 h, read-out: IC50 values, Vero cells 48 h): > 3000 µM | IC50 (Vero cells; 72 h, read-out: IC50 values, Vero cells 72 h): > 3000 µM | Number of Early Apoptotic cells (%) (HeLa cells [1]; 4.5 mM): 3.75 ± 1.06% | Number of Late Apoptotic cells (%) (HeLa cells [1]; 4.5 mM): 1.00 ± 0.28% | Number of Early Apoptotic cells (%) (HeLa cells [1]; 9.0 mM): 7.60 ± 1.27% | Number of Late Apoptotic cells (%) (HeLa cells [1]; 9.0 mM): 2.05 ± 1.06% | Number of Early Apoptotic cells (%) (HeLa cells [1]; 9.0 mM, listed as sodium butyrate): 7.6%
